According to patent publication US9593109B2, “Bicyclic agonists of GPR131 and uses thereof” (CYMABAY THERAPEUTICS, INC., priority 2011, dated 2017):

Molecular target: T1, human GPR131 (Homo sapiens, UniProt Q8TDU6)
T1 construct: expressed in transfected cells
T1 sequence (Q8TDU6 1-330): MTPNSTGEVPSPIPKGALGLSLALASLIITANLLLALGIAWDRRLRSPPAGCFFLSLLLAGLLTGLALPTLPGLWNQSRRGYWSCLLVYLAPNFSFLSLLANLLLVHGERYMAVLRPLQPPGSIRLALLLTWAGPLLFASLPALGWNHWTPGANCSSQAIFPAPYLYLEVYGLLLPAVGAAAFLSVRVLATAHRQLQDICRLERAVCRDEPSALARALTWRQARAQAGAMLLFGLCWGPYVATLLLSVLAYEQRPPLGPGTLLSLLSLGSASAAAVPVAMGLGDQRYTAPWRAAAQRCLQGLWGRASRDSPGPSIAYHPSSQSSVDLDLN
Experiment: Stimulation of cAMP (agonism of GPR131), FRET cAMP assay
Assay type: cell-based
Conditions: 0.5 h; 1.1 μM compound; compared to maximal stimulatory activity of lithocholic acid (LCA) determined at 3.3 μM; stable cell line expressing human GPR131; 37° C. for 30 minutes; read-out: Percent Activity @ 1.1 μM (of 3.3 uM LCA) (%)
Method: This assay was developed using a stable cell line expressing human GPR131.
To measure cAMP activity in response to GPR131 agonists, GPR131 cells suspended in DMEM/F12 medium with 1 mM IBMX were seeded in 384 well plates at 5000 cells per well. After incubating with test compounds at 37° C. for 30 minutes cAMP was measured using a fluorescene resonance energy transfer cAMP kit from Cis Bio (Bedford, Mass.) according to the manufacturer's instructions. Briefly, cells were lysed, and cAMP levels determined by competitive immunoassay using D2 labeled cAMP, and europium cryptate tagged anti cAMP antibody. Decreases in the FRET signal (fluorescence ratio (665 nm/620 […]) correspond to increases in intracellular cAMP levels.
Activities of test compounds in Table 1 below are expressed as percent activity at 1.1 μM compound compared to the maximal stimulatory activity of lithocholic acid (LCA) (determined at 3.3 μM LCA).

| SMILES | activation at 1.1 µM [%] |
| --- | --- |
| Clc1ccc(-n2ncnc2-c2c(-c3ccccc3Cl)nc3ccccn23)cc1 [Compound 503, 2-(2-Chlorophenyl)-3-(1-(4-chlorophenyl)-1H-1,2,4-triazol-5-yl)imidazo[1,2-a]pyridine] | 97.4 |
| Cc1nc(-c2c(-c3cc(Cl)ccc3Cl)nc3ccccn23)n(-c2ccc(Cl)cc2)n1 [Compound 504, 3-(1-(4-Chlorophenyl)-3-methyl-1H-1,2,4-triazol-5-yl)-2-(2,5-dichlorophenyl)imidazo[1,2-a]pyridine] | 97.4 |
| Cc1nnc(-c2c(-c3cc(Cl)ccc3Cl)nc3ccccn23)n1-c1ccc(Cl)cc1 [Compound 505, 3-(4-(4-Chlorophenyl)-5-methyl-4H-1,2,4-triazol-3-yl)-2-(2,5-dichlorophenyl)imidazo[1,2-a]pyridine] | 99.1 |
| Clc1ccc(-n2ccnc2-c2c(-c3cc(Cl)ccc3Cl)nc3ccccn23)cc1 [Compound 506, 3-(1-(4-Chlorophenyl)-1H-imidazol-2-yl)-2-(2,5-dichlorophenyl)imidazo[1,2-a]pyridine] | 99.4 |
| Clc1ccc(-n2cncc2-c2c(-c3cc(Cl)ccc3Cl)nc3ccccn23)cc1 [Compound 507, 3-(1-(4-Chlorophenyl)-1H-imidazol-5-yl)-2-(2,5-dichlorophenyl)imidazo[1,2-a]pyridine] | 100 |
| CN(C)c1ccc(-n2cnnc2-c2c(-c3cc(Cl)ccc3Cl)nc3ccccn23)cc1 [Compound 510, 4-(3-(2-(2,5-Dichlorophenyl)imidazo[1,2-a]pyridin-3-yl)-4H-1,2,4-triazol-4-yl)-N,N-dimethylaniline] | 100 |
| N#Cc1ccc(-n2cnnc2-c2c(-c3cc(Cl)ccc3Cl)nc3ccccn23)cc1 [Compound 515, 4-(3-(2-(2,5-Dichlorophenyl)imidazo[1,2-a]pyridin-3-yl)-4H-1,2,4-triazol-4-yl)benzonitrile] | 100 |
| Clc1ccc(Cl)c(-c2nc3ccccn3c2-c2nncn2-c2ccc3cn[nH]c3c2)c1 [Compound 516, 6-(3-(2-(2,5-Dichlorophenyl)imidazo[1,2-a]pyridin-3-yl)-4H-1,2,4-triazol-4-yl)-1H-indazole] | 99.8 |
| Clc1ccc(Cl)c(-c2nc3ccccn3c2-c2nncn2-c2ccc3scnc3c2)c1 [Compound 518, 5-(3-(2-(2,5-Dichlorophenyl)imidazo[1,2-a]pyridin-3-yl)-4H-1,2,4-triazol-4-yl)benzo[d]thiazole] | 98.4 |
| Cn1ncc2ccc(-n3cnnc3-c3c(-c4cc(Cl)ccc4Cl)nc4ccccn34)cc21 [Compound 520, 6-(3-(2-(2,5-Dichlorophenyl)imidazo[1,2-a]pyridin-3-yl)-4H-1,2,4-triazol-4-yl)-1-methyl-1H-indazole] | 95.7 |
| Fc1ccc(-c2nn3ccccc3c2-c2nncn2-c2ccc(Cl)cc2)cc1 [Compound 524, 3-(4-(4-Chlorophenyl)-4H-1,2,4-triazol-3-yl)-2-(4-fluorophenyl)pyrazolo[1,5-a]pyridine] | 99.1 |
| S=c1[nH]nc(-c2c(-c3cc(Cl)ccc3Cl)nc3ccccn23)n1-c1ccc(Cl)cc1 [Compound 526, 4-(4-Chlorophenyl)-3-(2-(2,5-dichlorophenyl)imidazo[1,2-a]pyridin-3-yl)-1H-1,2,4-triazole-5(4H)-thione] | 98.9 |
| Fc1ccc(-n2cnnc2-c2c(-c3cc(Cl)ccc3Cl)nc3ccccn23)cc1 [Compound 533, 2-(2,5-Dichlorophenyl)-3-(4-(4-fluorophenyl)-4H-1,2,4-triazol-3-yl)imidazo[1,2-a]pyridine] | 100 |
| Fc1ccccc1-n1cnnc1-c1c(-c2cc(Cl)ccc2Cl)nc2ccccn12 [Compound 534, 2-(2,5-Dichlorophenyl)-3-(4-(2-fluorophenyl)-4H-1,2,4-triazol-3-yl)imidazo[1,2-a]pyridine] | 96.8 |
| Fc1cccc(-n2cnnc2-c2c(-c3cc(Cl)ccc3Cl)nc3ccccn23)c1 [Compound 535, 2-(2,5-Dichlorophenyl)-3-(4-(3-fluorophenyl)-4H-1,2,4-triazol-3-yl)imidazo[1,2-a]pyridine] | 99.6 |
| Cc1ccc(-n2cnnc2-c2c(-c3cc(Cl)ccc3Cl)nc3ccccn23)cn1 [Compound 540, 2-(2,5-Dichlorophenyl)-3-(4-(6-methylpyridin-3-yl)-4H-1,2,4-triazol-3-yl)imidazo[1,2-a]pyridine] | 96 |
| Clc1ccc(Cl)c(-c2nc3ccccn3c2-c2nncn2-c2ccc3ncccc3c2)c1 [Compound 541, 6-(3-(2-(2,5-Dichlorophenyl)imidazo[1,2-a]pyridin-3-yl)-4H-1,2,4-triazol-4-yl)quinoline] | 93.9 |

Now from value to compound:

| activation at 1.1 µM [%] | SMILES |
| --- | --- |
| 97.4 | Clc1ccc(-n2nnnc2-c2c(-c3ccccc3Cl)nc3ccccn23)cc1 [Compound 500, 2-(2-Chlorophenyl)-3-(1-(4-chlorophenyl)-1H-tetrazol-5-yl)imidazo[1,2-a]pyridine] |
| 99.4 | Clc1ccc(-n2cnnc2-c2c(-c3ccccc3Cl)nc3ccccn23)cc1 [Compound 501, 2-(2-Chlorophenyl)-3-(4-(4-chlorophenyl)-4H-1,2,4-triazol-3-yl)imidazo[1,2-a]pyridine] |
| 100 | FC(F)(F)c1ccc(-n2cnnc2-c2c(-c3cc(Cl)ccc3Cl)nc3ccccn23)cc1 [Compound 513, 2-(2,5-Dichlorophenyl)-3-(4-(4-(trifluoromethyl)phenyl)-4H-1,2,4-triazol-3-yl)imidazo[1,2-a]pyridine] |
| 93.3 | Clc1ccc(Cl)c(-c2nc3ccccn3c2-c2nncn2-c2ccc3[nH]ncc3c2)c1 [Compound 514, 5-(3-(2-(2,5-Dichlorophenyl)imidazo[1,2-a]pyridin-3-yl)-4H-1,2,4-triazol-4-yl)-1H-indazole] |
| 99.9 | Cn1ncc2cc(-n3cnnc3-c3c(-c4cc(Cl)ccc4Cl)nc4ccccn34)ccc21 [Compound 519, 5-(3-(2-(2,5-Dichlorophenyl)imidazo[1,2-a]pyridin-3-yl)-4H-1,2,4-triazol-4-yl)-1-methyl-1H-indazole] |
| 81.6 | Cn1cnc2cc(-n3cnnc3-c3c(-c4cc(Cl)ccc4Cl)nc4ccccn34)ccc21 [Compound 521, 5-(3-(2-(2,5-Dichlorophenyl)imidazo[1,2-a]pyridin-3-yl)-4H-1,2,4-triazol-4-yl)-1-methyl-1H-benzo[d]imidazole] |
| 91.4 | Clc1ccccc1-c1nc2ccccn2c1-c1nncn1-c1ccc2cn[nH]c2c1 [Compound 522, 6-(3-(2-(2-Chlorophenyl)imidazo[1,2-a]pyridin-3-yl)-4H-1,2,4-triazol-4-yl)-1H-indazole] |
| 95.2 | Clc1ccc(Cl)c(-c2nc3cccnn3c2-c2nncn2-c2ccc3cn[nH]c3c2)c1 [Compound 523, 3-(4-(1H-Indazol-6-yl)-4H-1,2,4-triazol-3-yl)-2-(2,5-dichlorophenyl)imidazo[1,2-b]pyridazine] |
| 83.3 | O=c1[nH]nc(-c2c(-c3cc(Cl)ccc3Cl)nc3ccccn23)n1-c1ccc(Cl)cc1 [Compound 525, 4-(4-Chlorophenyl)-3-(2-(2,5-dichlorophenyl)imidazo[1,2-a]pyridin-3-yl)-1H-1,2,4-triazol-5(4H)-one] |
| 97.1 | COc1nnc(-c2c(-c3cc(Cl)ccc3Cl)nc3ccccn23)n1-c1ccc(Cl)cc1 [Compound 527, 3-(4-(4-Chlorophenyl)-5-methoxy-4H-1,2,4-triazol-3-yl)-2-(2,5-dichlorophenyl)imidazo[1,2-a]pyridine] |
| 86.8 | CSc1nnc(-c2c(-c3cc(Cl)ccc3Cl)nc3ccccn23)n1-c1ccc(Cl)cc1 [Compound 528, 3-(4-(4-Chlorophenyl)-5-(methylthio)-4H-1,2,4-triazol-3-yl)-2-(2,5-dichlorophenyl)imidazo[1,2-a]pyridine] |
| 99.6 | CCc1ccc(-n2cnnc2-c2c(-c3cc(Cl)ccc3Cl)nc3ccccn23)cc1 [Compound 529, 2-(2,5-Dichlorophenyl)-3-(4-(4-ethylphenyl)-4H-1,2,4-triazol-3-yl)imidazo[1,2-a]pyridine] |
| 98.9 | CC(C)c1ccc(-n2cnnc2-c2c(-c3cc(Cl)ccc3Cl)nc3ccccn23)cc1 [Compound 530, 2-(2,5-Dichlorophenyl)-3-(4-(4-isopropylphenyl)-4H-1,2,4-triazol-3-yl)imidazo[1,2-a]pyridine] |
| 88.8 | Clc1ccc(Cl)c(-c2nc3ccccn3c2-c2nncn2-c2ccc(-c3ccccc3)cc2)c1 [Compound 531, 3-(4-([1,1′-Biphenyl]-4-yl)-4H-1,2,4-triazol-3-yl)-2-(2,5-dichlorophenyl)imidazo[1,2-a]pyridine] |
| 100 | Cn1ccc2cc(-n3cnnc3-c3c(-c4cc(Cl)ccc4Cl)nc4ccccn34)ccc21 [Compound 536, 2-(2,5-Dichlorophenyl)-3-(4-(1-methyl-1H-indol-5-yl)-4H-1,2,4-triazol-3-yl)imidazo[1,2-a]pyridine] |
